Assay results: ChEMBL document CHEMBL1949611, “Functional characterization of rat glutaryl-CoA dehydrogenase and its comparison with straight-chain acyl-CoA dehydrogenase” (Bioorg Med Chem Lett, 2011)
Calls of active or inactive are those of the source. No cut-off for these calls is given here.

Columns and labels:
Rattus norvegicus [1] = species: Rattus norvegicus; experiment: Activity of rat glutaryl-co A dehydrogenase expressed in Escherichia coli BL21
Rattus norvegicus [2] = species: Rattus norvegicus; experiment: Ratio of Kcat to Km for rat glutaryl-co A dehydrogenase expressed in Escherichia coli BL21
Rattus norvegicus [3] = species: Rattus norvegicus; experiment: Activity of rat glutaryl-co A dehydrogenase E370A mutant expressed in Escherichia coli BL21
Rattus norvegicus [4] = species: Rattus norvegicus; experiment: Activity of rat glutaryl-co A dehydrogenase E370Q mutant expressed in Escherichia coli BL21
Rattus norvegicus [5] = species: Rattus norvegicus; experiment: Time-dependent inhibition of rat glutaryl-co A dehydrogenase after 30 mins by spectrophotometry
[6] = (§1) Inhibition of rat glutaryl-co A dehydrogenase by spectrophotometry
Rattus norvegicus [7] = species: Rattus norvegicus; experiment: as §1; conditions: for inhibition: TDE = time-dependent effect
Rattus norvegicus [8] = species: Rattus norvegicus; experiment: Irreversible inhibition of rat glutaryl-co A dehydrogenase by dialysis method
Rattus norvegicus [9] = species: Rattus norvegicus; experiment: Irreversible inhibition of rat glutaryl-co A dehydrogenase by HPLC analysis
Rattus norvegicus [10] = species: Rattus norvegicus; experiment: Time-dependent inhibition of rat glutaryl-co A dehydrogenase after 160 mins by spectrophotometry

Structure (SMILES) | Km (Rattus norvegicus [1]) | Vmax (Rattus norvegicus [1]) | kcat (Rattus norvegicus [1]) | kcat/Km (10'-3/microM/s) (Rattus norvegicus [2]) | kcat/Km (Rattus norvegicus [2]) | further results
CC/C=C\CC(=O)SCCNC(=O)CCNC(=O)C(O)C(C)(C)COP(=O)(O)OP(=O)(O)OC[C@H]1O[C@@H](n2cnc3c(N)ncnc32)[C@H](O)[C@@H]1OP(=O)(O)O (stereo not given in full) | 49 µM | 331 nmol/mg/min | 0.24 s⁻¹ | 4.9 |  | kcat (Rattus norvegicus [3]): 0.00078 s⁻¹; kcat (Rattus norvegicus [4]): 0.0021 s⁻¹
CCCCCC#CC(=O)SCCNC(=O)CCNC(=O)C(O)C(C)(C)COP(=O)(O)OP(=O)(O)OC[C@H]1O[C@@H](n2cnc3c(N)ncnc32)[C@H](O)[C@@H]1OP(=O)(O)O (stereo not given in full) |  |  |  |  |  | inhibition (Rattus norvegicus [5]): 2%; Ki [6]: 18 µM; Kinact (Rattus norvegicus [7]): 0.2 min⁻¹; inhibition (Rattus norvegicus [7]): tde; inhibition (Rattus norvegicus [8]): Active; inhibition (Rattus norvegicus [9]): Active
CCCCCCCC(=O)SCCNC(=O)CCNC(=O)C(O)C(C)(C)COP(=O)(O)OP(=O)(O)OC[C@H]1O[C@@H](n2cnc3c(N)ncnc32)[C@H](O)[C@@H]1OP(=O)(O)O (stereo not given in full) | 28 µM |  | 1.1 s⁻¹ |  |  | kcat/Km (10'-2/microM/s) (Rattus norvegicus [2]): 3.9
CC/C=C/CC(=O)SCCNC(=O)CCNC(=O)C(O)C(C)(C)COP(=O)(O)OP(=O)(O)OC[C@H]1O[C@@H](n2cnc3c(N)ncnc32)[C@H](O)[C@@H]1OP(=O)(O)O (stereo not given in full) | 51 µM | 136 nmol/mg/min | 0.099 s⁻¹ | 1.9 |  | 
CCCC/C=C/CC(=O)SCCNC(=O)CCNC(=O)C(O)C(C)(C)COP(=O)(O)OP(=O)(O)OC[C@H]1O[C@@H](n2cnc3c(N)ncnc32)[C@H](O)[C@@H]1OP(=O)(O)O (stereo not given in full) | 58 µM | 56 nmol/mg/min | 0.041 s⁻¹ |  | 7.1 ×10⁻⁴ /µM/s | 
CCCCCC(=O)SCCNC(=O)CCNC(=O)C(O)C(C)(C)COP(=O)(O)OP(=O)(O)OC[C@H]1O[C@@H](n2cnc3c(N)ncnc32)[C@H](O)[C@@H]1OP(=O)(O)O (stereo not given in full) | 20 µM |  | 2.1 s⁻¹ |  | 110000 M⁻¹ s⁻¹ | 
CCCC/C=C\CC(=O)SCCNC(=O)CCNC(=O)C(O)C(C)(C)COP(=O)(O)OP(=O)(O)OC[C@H]1O[C@@H](n2cnc3c(N)ncnc32)[C@H](O)[C@@H]1OP(=O)(O)O (stereo not given in full) | 66 µM | 113 nmol/mg/min | 0.083 s⁻¹ | 1.3 |  | 
CCCC(=O)SCCNC(=O)CCNC(=O)C(O)C(C)(C)COP(=O)(O)OP(=O)(O)OC[C@H]1O[C@@H](n2cnc3c(N)ncnc32)[C@H](O)[C@@H]1OP(=O)(O)O (stereo not given in full) | 12 µM |  | 2.7 s⁻¹ |  | 230000 M⁻¹ s⁻¹ | 
CCC/C=C/C#CC(=O)SCCNC(=O)CCNC(=O)C(O)C(C)(C)COP(=O)(O)OP(=O)(O)OC[C@H]1O[C@@H](n2cnc3c(N)ncnc32)[C@H](O)[C@@H]1OP(=O)(O)O (stereo not given in full) |  |  |  |  |  | Ki [6]: 43 µM; Kinact (Rattus norvegicus [7]): 0.024 min⁻¹; inhibition (Rattus norvegicus [7]): tde; inhibition (Rattus norvegicus [8]): Active; inhibition (Rattus norvegicus [10]): 20%; inhibition (Rattus norvegicus [9]): Active
CCCCCCCCCC(=O)SCCNC(=O)CCNC(=O)C(O)C(C)(C)COP(=O)(O)OP(=O)(O)OC[C@H]1O[C@@H](n2cnc3c(N)ncnc32)[C@H](O)[C@@H]1OP(=O)(O)O (stereo not given in full) | 54 µM |  | 0.18 s⁻¹ | 3.3 |  | 
CCCCCC/C=C/CC(=O)SCCNC(=O)CCNC(=O)C(O)C(C)(C)COP(=O)(O)OP(=O)(O)OC[C@H]1O[C@@H](n2cnc3c(N)ncnc32)[C@H](O)[C@@H]1OP(=O)(O)O (stereo not given in full) | 74 µM | 27 nmol/mg/min | 0.02 s⁻¹ |  | 2.7 ×10⁻⁴ /µM/s | 
CCCCCC/C=C\CC(=O)SCCNC(=O)CCNC(=O)C(O)C(C)(C)COP(=O)(O)OP(=O)(O)OC[C@H]1O[C@@H](n2cnc3c(N)ncnc32)[C@H](O)[C@@H]1OP(=O)(O)O (stereo not given in full) | 88 µM | 62 nmol/mg/min | 0.046 s⁻¹ |  | 5.2 ×10⁻⁴ /µM/s | 
